Where two headings read alike, the source gives them in different places.

One data set is described as follows: physchem. It counts as physicochemical. The protocol:
1 Method Description for Determination of the logP values and Mass Detection
Eluents for determination in the acidic range (pH 3.4): • Eluent A: acetonitrile+1 ml formic acid/l.
The λmax values were determined in the maxima of the chromatographic signals using the UV spectra from 200 nm to 400 nm. The mass was detected (M^+, m/z) by means of an Agilent MSD mass spectrometer.

For data set [1], the system named is green peach aphid (Myzus persicae). As to the kind of experiment: Myzus persicae test (spray treatment). It counts as in vivo. As to conditions: foliar, 144 h, read-out: efficacy in %. How it is done:
Myzus persicae Test (Spray Treatment)
• Solvent: 78 parts by weight of acetone • 1.5 parts by weight of dimethylformamide • Emulsifier: 0.5 part by weight of alkylaryl polyglycol ether
To prepare an appropriate active ingredient preparation, 1 part by weight of active ingredient is mixed with the stated amounts of solvent and emulsifier, and the concentrate is diluted with emulsifier-containing water to the desired concentration. Discs of Chinese cabbage (Brassica pekinensis) infested by all stages of the green peach aphid (Myzus persicae) are sprayed with an active ingredient preparation of the desired concentration.
After 6 days, the efficacy in % is determined. 100% means that all of the aphids have been killed; 0% means that none of the aphids have been killed.

Where [2] appears, read: reverse-phase HPLC column (C 18), pH 3.4, HPLC, reverse-phase C 18, acidic range pH 3.4, 55° C., table of compounds, read-out: logP (HCO2H).
Setting [3] is: reverse-phase HPLC column (C 18), pH 3.4, HPLC-MS value printed in the preparation example text, acidic range pH 3.4, read-out: logP (HCOOH).
Setting [4] is: application rate 500 g/ha, Chinese cabbage leaf discs sprayed, after 6 days, 100% = all aphids killed.
[5] abbreviates: pH 3.4, HPLC-MS value printed in the preparation example text, acidic range pH 3.4, read-out: logP (HCOOH).

`Cc1cc(-c2cccnc2)sc1C(=O)NCC(F)(F)F` [Compound 5, 3-Methyl-5-(pyridin-3-yl)-N-(2,2,2-trifluoroethyl)thiophene-2-carboxamide]: the chromatographic logP in the data set “physchem” (setting [2]) and in “physchem” (setting [3]) was 1.62 throughout.

Take `CCOC(=O)c1cc(-c2ccc(Cl)nc2)ns1` [Ethyl 3-(6-chloropyridin-3-yl)-1,2-thiazole-5-carboxylate]: in the data set “physchem” (setting [3]), the chromatographic logP turned out to be 3.33.

For the molecule `CCCNC(=O)c1ccc(-c2cccnc2)o1` [Compound 32], in “physchem” (setting [2]), the chromatographic logP is 0.83. In addition, the pest or weed control at 500 g/ha in data set [1] (setting [4]) is 100%.

Consider `C=C(Cl)CNC(=O)c1ccc(-c2cccnc2)o1` [Compound 19], for which the chromatographic logP in the data set “physchem” (setting [2]) was found to be 1.28. For the same molecule, the pest or weed control at 500 g/ha in data set [1] (setting [4]) stood at 100%.

Regarding `CN(CC#N)C(=O)c1ccc(-c2cccnc2)o1` [Compound 16], the chromatographic logP in “physchem” (setting [2]) is 0.72. Besides, the pest or weed control at 500 g/ha in data set [1] (setting [4]) is 90%.

Take `O=C(O)c1cn(-c2cccnc2)nn1` [1-(Pyridin-3-yl)-1H-1,2,3-triazole-4-carboxylic acid]: in “physchem” (setting [3]), the chromatographic logP is -0.03.

As for `C#CCNC(=O)c1ccc(-c2cccnc2)o1` [Compound 22], the chromatographic logP in the data set “physchem” (setting [2]) was 0.72. Further, the pest or weed control at 500 g/ha in data set [1] (setting [4]) came to 100%.

On to `Cc1nc(-c2cccnc2)oc1C(=O)O` [4-Methyl-2-(pyridin-3-yl)-1,3-oxazole-5-carboxylic acid], for which, in the data set “physchem” (setting [3]), the chromatographic logP is 0.56.

With `O=C(NCC(F)(F)F)C1CN=C(c2cncnc2)S1` (stereo not shown) [Compound 45], in “physchem” (setting [2]), the chromatographic logP was 1.4. In data set [1] (setting [4]), the pest or weed control at 500 g/ha came out at 100%.

On to `O=C(O)c1csc(-c2cccnc2)n1` [2-(Pyridin-3-yl)-1,3-thiazole-4-carboxylic acid], for which, in the data set “physchem” (setting [3]), the chromatographic logP was 0.35.

For the molecule `CCOC(=O)c1nc(C)c(-c2cccnc2)s1` [Ethyl 4-methyl-5-(3-pyridinyl)-1,3-thiazole-2-carboxylate], the chromatographic logP in “physchem” (setting [3]) came out at 0.45.

Consider `CC(F)(F)CNC(=O)c1cc(-c2cccnc2)ns1` [Compound 38, N-(2,2-Difluoropropyl)-3-(pyridin-3-yl)-1,2-thiazole-5-carboxamide], for which the chromatographic logP in “physchem” (setting [2]) and in “physchem” (setting [3]) was 1.33 in each case. In addition, the pest or weed control at 500 g/ha in data set [1] (in Brassica rapa) amounted to 100%.

Turning to `O=C(O)c1cnc(-c2cccnc2)o1` [2-(Pyridin-3-yl)-1,3-oxazole-5-carboxylic acid], the chromatographic logP in “physchem” (setting [3]) is -0.06.

In the case of `COC(=O)c1ccn(-c2cccnc2)c1` [Methyl 1-(pyridin-3-yl)pyrrole-3-carboxylate], the chromatographic logP in the data set “physchem” (setting [3]) stood at 1.26.

For `Cc1nc(-c2cccnc2)oc1C(=O)NCC(F)(F)F` [Compound 4, 4-Methyl-2-(pyridin-3-yl)-N-(2,2,2-trifluoroethyl)-1,3-oxazole-5-carboxamide], the chromatographic logP in “physchem” (setting [2]) and in the data set “physchem” (setting [3]) was 1.46 throughout.

Regarding `O=C(NCC(F)(F)F)n1cnc(-c2cccnc2)c1` [Compound 1, 4-(Pyridin-3-yl)-N-(2,2,2-trifluoroethyl)-1H-imidazole-1-carboxamide], the chromatographic logP in “physchem” (setting [2]) and in the data set “physchem” (setting [3]) was 0.65 throughout. Moreover, in data set [1] (setting [4]), the pest or weed control at 500 g/ha stood at 100%.

For the molecule `O=C(NCC(F)(F)F)c1coc(-c2cccnc2)c1` [Compound 12, 5-(Pyridin-3-yl)-N-(2,2,2-trifluoroethyl)furan-3-carboxamide], the chromatographic logP in “physchem” (setting [2]) and in the data set “physchem” (setting [3]) was 1.13 in each case. Also, in data set [1] (setting [4]), the pest or weed control at 500 g/ha came out at 90%.

Take `CNC(=O)c1ccc(-c2cccnc2)o1` [Compound 31, N-Methyl-5-(pyridin-3-yl)furan-2-carboxamide]: the chromatographic logP in “physchem” (setting [2]) and in the data set “physchem” (setting [3]) was 0.42 in each case. Besides, the pest or weed control at 500 g/ha in data set [1] (in Brassica rapa) is 100%.

In the case of `O=C(NCC(F)F)c1csc(-c2cccnc2)n1` [Compound 33, N-(2,2-Difluoroethyl)-2-(pyridin-3-yl)-1,3-thiazole-4-carboxamide], the chromatographic logP in “physchem” (pH 3.4, HPLC, reverse-phase C 18, acidic range pH 3.4, 55° C., table of compounds, read-out: logP (HCO2H)) was determined as 1.22; in the data set “physchem” (setting [5]), 1.18. Moreover, the pest or weed control at 500 g/ha in data set [1] (in Brassica rapa) turned out to be 100%.

Turning to `CSC[C@H](C)NC(=O)c1nnc(-c2cccnc2)o1` [Compound 35], the chromatographic logP in “physchem” (setting [2]) was determined as 1.39. Further, the pest or weed control at 500 g/ha in data set [1] (setting [4]) was 80%.

As for `O=C(NCC(F)(F)F)C1CN=C(c2cccnc2)S1` (stereo not shown) [Compound 42], the chromatographic logP in the data set “physchem” (pH 3.4, logP (HCO2H)) is 0.54.

`CC(NC(=O)c1ccc(-c2cccnc2)o1)C1CC1` (stereo not shown) [Compound 8]: in the data set “physchem” (setting [2]), the chromatographic logP is 1.36. In addition, in data set [1] (setting [4]), the pest or weed control at 500 g/ha was determined as 80%.

With `O=C(c1ccc(-c2cccnc2)o1)N1CCCC1` [Compound 10], the chromatographic logP in “physchem” (setting [2]) came to 1.06.

Regarding `O=C(NCC(F)(F)F)c1ccn(-c2cccnc2)c1` [Compound 36, 1-(Pyridin-3-yl)-N-(2,2,2-trifluoroethyl)pyrrole-3-carboxamide], the chromatographic logP in “physchem” (setting [2]) and in the data set “physchem” (setting [3]) was 1.24 throughout. Further, the pest or weed control at 500 g/ha in data set [1] (in Brassica rapa) was 90%.

Regarding `O=C(O)C1CN=C(c2cncnc2)S1` (racemic) [(R,S)-4,5-Dihydro-2-(5-pyrimidinyl)-1,3-thiazole-5-carboxylic acid], the chromatographic logP in the data set “physchem” (setting [3]) was 0.3.

In the data set “physchem” (pH 3.4, logP (HCO2H)), `O=C(NCc1ncccn1)C1CN=C(c2cccnc2)S1` (stereo not shown) [Compound 43] came in with a chromatographic logP of 0.32. Moreover, the pest or weed control at 500 g/ha in data set [1] (setting [4]) amounted to 100%.

Regarding `O=C(NCC(F)(F)F)n1cc(-c2cccnc2)cn1` [Compound 48], the chromatographic logP in the data set “physchem” (setting [3]) stood at 0.95.

Turning to `Cc1cc(-c2cccnc2)sc1C(=O)O` [3-Methyl-5-(pyridin-3-yl)thiophene-2-carboxylic acid], the chromatographic logP in the data set “physchem” (setting [3]) turned out to be 1.96.

Consider `O=C(NCC(F)(F)F)c1cc(-c2cccnc2)on1` [Compound 39, 5-(Pyridin-3-yl)-N-(2,2,2-trifluoroethyl)-1,2-oxazole-3-carboxamide], for which the chromatographic logP in “physchem” (setting [2]) and in the data set “physchem” (setting [3]) was 1.51 in each case.

With `O=C(O)C1CN=C(c2cccnc2)S1` (racemic) [(R,S)-4,5-Dihydro-2-(3-pyridinyl)-1,3-thiazole-5-carboxylic acid], the chromatographic logP in “physchem” (setting [5]) was determined as 0.75.

`O=C(NCC(F)(F)F)c1nnc(-c2cccnc2)o1` [Compound 49, 5-(Pyridin-3-yl)-N-(2,2,2-trifluoroethyl)-1,3,4-oxadiazole-2-carboxamide]: the chromatographic logP in the data set “physchem” (setting [2]) and in “physchem” (setting [3]) was 1.21 throughout.

Take `CCOC(=O)c1cn(-c2cccnc2)nn1` [Ethyl 1-(pyridin-3-yl)-1H-1,2,3-triazole-4-carboxylate]: the chromatographic logP in “physchem” (setting [3]) was 1.15.

For `CCOC(=O)c1ncn(-c2cccnc2)c1C` [Ethyl 5-methyl-1-(pyridin-3-yl)-1H-imidazole-4-carboxylate], in the data set “physchem” (setting [3]), the chromatographic logP amounted to 1.03.

Turning to `CN(C)C(=O)C1CN=C(c2cncnc2)S1` (stereo not shown) [Compound 46], the chromatographic logP in “physchem” (setting [2]) was determined as 0.99.

For the molecule `CN(C)C(=O)C1CN=C(c2cccnc2)S1` (racemic) [Compound 41, (R,S)-4,5-Dihydro-N,N-dimethyl-2-(3-pyridinyl)-1,3-thiazole-5-carboxamide], the pest or weed control at 500 g/ha in data set [1] (setting [4]) stood at 100%.

As for `Cc1c(C(=O)NCC(F)(F)F)ncn1-c1cccnc1` [Compound 50, 5-Methyl-1-(pyridin-3-yl)-N-(2,2,2-trifluoroethyl)-1H-imidazole-4-carboxamide], the chromatographic logP in “physchem” (setting [2]) and in the data set “physchem” (setting [3]) was 1.28 in each case.

`CC(F)(F)CNC(=O)c1cc(-c2ccc(Cl)nc2)ns1` [3-(6-Chloropyridin-3-yl)-N-(2,2-difluoropropyl)-1,2-thiazole-5-carboxamide]: in the data set “physchem” (setting [3]), the chromatographic logP stood at 2.45.

As for `O=C(NCC(F)(F)F)c1cc(-c2cccnc2)no1` [Compound 40], the chromatographic logP in “physchem” (setting [2]) is 1.33.

For `Cc1nc(C(=O)NCC(F)(F)F)sc1-c1cccnc1` [Compound 47, 4-Methyl-5-(3-pyridyl)-N-(2,2,2-trifluoroethyl)-1,3-thiazole-2-carboxamide], the chromatographic logP in “physchem” (setting [2]) and in the data set “physchem” (setting [3]) was 1.74 each time.

Consider `O=C(O)c1cc(-c2ccc(Cl)nc2)ns1` [3-(6-Chloropyridin-3-yl)-1,2-thiazole-5-carboxylic acid], for which the chromatographic logP in “physchem” (setting [3]) worked out at 1.56.

For the molecule `O=C(NCC(F)(F)Br)c1ccc(-c2cccnc2)o1` [Compound 26], the chromatographic logP in “physchem” (setting [2]) was determined as 1.49.

In the case of `O=C(NCC1CCCCC1)c1ccc(-c2cccnc2)o1` [Compound 15], the chromatographic logP in “physchem” (setting [2]) came to 2.02.

Take `CSCCNC(=O)c1nnc(-c2cccnc2)o1` [Compound 34, N-(2-Methylmercaptoethyl)-5-(pyridin-3-yl)-1,3,4-oxazole-2-carboxamide]: the chromatographic logP in “physchem” (setting [2]) and in the data set “physchem” (setting [3]) was 1.13 throughout.

Turning to `CCOC(=O)c1nnc(-c2cccnc2)o1` [Ethyl 5-(pyridin-3-yl)-1,3,4-oxadiazole-2-carboxylate], the chromatographic logP in the data set “physchem” (setting [3]) stood at 1.21.

As for `O=C(O)c1coc(-c2cccnc2)c1` [5-(Pyridin-3-yl)furan-3-carboxylic acid], the chromatographic logP in “physchem” (setting [3]) was found to be 0.07.

For the molecule `NC(=O)c1csc(-c2cccnc2)n1` [Compound 28], in data set [1] (setting [4]), the pest or weed control at 500 g/ha stood at 100%.

For the origin of these results see patent US9233951B2, “Heterocyclic compounds as pesticides” (Bayer Intellectual Property GmbH, priority 2010, dated 2016).
